Data as given in ChEMBL document CHEMBL4351028, “Benzoyl indoles with metabolic stability as reversal agents for ABCG2-mediated multidrug resistance” (Eur J Med Chem, 2019).

Experiments:
Assay type in all cases: cell-based; call rule not given here
NCI-H460 [1] = assay: Cytotoxicity against human NCI-H460 cells assessed as concentration that causes inhibition of cell viability by <=20% incubated for 24 hrs by MTT assay; details: nci-h460, 24 h
[2] = Cytotoxicity against human NCI-H460/MX20 cells assessed as concentration that causes inhibition of cell viability by <=20% incubated for 24 hrs by MTT assay
[3] = Cytotoxicity against human NCI-H460/MX20 cells assessed as inhibition of cell viability incubated for 2 hrs by MTT assay; details: NCI-H460/MX20, 2 h
NCI-H460 [4] = assay: Cytotoxicity against human NCI-H460 cells assessed as inhibition of cell viability incubated for 2 hrs by MTT assay; details: NCI-H460, 2 h
[5] = biological target: T1, Broad substrate specificity ATP-binding cassette transporter ABCG2 (Homo sapiens, UniProt Q9UNQ0); assay: (§1) Reversal of ABCG2-mediated multidrug resistance in human NCI-H460/MX20 cells assessed as potentiation of mitoxantrone-induced cytotoxicity by measuring inhibition of cell proliferation at 10 uM pretreated for 2 hrs followed by mitoxantrone addition and measured after 44 hrs by MTT assay (reference value: 24 +/- 3%); details: for inhibition (INH): 10 µM
T1 sequence (Q9UNQ0 whole entry): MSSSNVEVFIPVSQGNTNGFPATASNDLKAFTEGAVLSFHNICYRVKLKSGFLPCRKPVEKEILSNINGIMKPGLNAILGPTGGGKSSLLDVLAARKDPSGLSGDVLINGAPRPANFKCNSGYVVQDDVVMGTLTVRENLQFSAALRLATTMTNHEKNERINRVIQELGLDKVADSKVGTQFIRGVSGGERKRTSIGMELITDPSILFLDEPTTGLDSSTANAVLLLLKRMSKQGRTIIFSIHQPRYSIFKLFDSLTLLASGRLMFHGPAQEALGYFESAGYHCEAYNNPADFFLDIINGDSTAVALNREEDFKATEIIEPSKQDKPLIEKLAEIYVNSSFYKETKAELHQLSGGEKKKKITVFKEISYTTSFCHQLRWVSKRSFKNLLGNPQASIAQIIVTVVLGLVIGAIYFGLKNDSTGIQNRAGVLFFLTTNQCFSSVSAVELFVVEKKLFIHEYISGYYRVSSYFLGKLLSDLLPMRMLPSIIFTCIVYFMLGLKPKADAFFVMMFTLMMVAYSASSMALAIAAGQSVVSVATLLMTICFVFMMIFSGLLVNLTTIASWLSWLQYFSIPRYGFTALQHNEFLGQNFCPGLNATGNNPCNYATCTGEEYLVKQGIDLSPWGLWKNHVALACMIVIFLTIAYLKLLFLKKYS

[6] = biological target: T1, Broad substrate specificity ATP-binding cassette transporter ABCG2; assay: Reversal of ABCG2-mediated multidrug resistance in human NCI-H460/MX20 cells assessed as potentiation of mitoxantrone-induced cytotoxicity by measuring inhibition of cell proliferation pretreated for 2 hrs followed by mitoxantrone addition and measured after 44 hrs by MTT assay
[7] = biological target: T1, Broad substrate specificity ATP-binding cassette transporter ABCG2; assay: as §1, with “25” for “10”; details: for inhibition (INH): 25 µM

| SMILES | Activity (NCI-H460 [1]) [µM] | Activity [2] [µM] | IC50 [3] [µM] | IC50 (NCI-H460 [4]; read-out: IC50) [µM] | inhibition (INH) [5] | inhibition (INH) [6] | inhibition at 25 µM [7] [%] | inhibition (INH) [7] | IC50 (NCI-H460 [4]) [µM] | inhibition at 10 µM [5] [%] |
| --- | --- | --- | --- | --- | --- | --- | --- | --- | --- | --- |
| COc1ccc(C(=O)c2c[nH]c3cccc(OC)c23)cc1 | 10 | 10 | > 100 | > 100 | Active |  |  |  |  |  |
| O=C(c1c(O)cccc1O)c1c[nH]c2ccc(O)cc12 | 10 | 10 | > 100 | > 100 |  |  |  |  |  |  |
| O=C(c1ccc(O)cc1O)c1c[nH]c2cccc(O)c12 | 25 | 25 | > 100 | > 100 |  | Dose-dependent effect | > 87 |  |  |  |
| COc1ccc(C(=O)c2c[nH]c3ccc(OC)cc23)c(OC)c1 | 25 | 25 | > 100 | > 100 |  |  |  | Active |  |  |
| O=C(c1cccc(O)c1)c1c[nH]c2ccc(O)cc12 | 25 | 25 | > 100 | > 100 |  |  |  |  |  |  |
| O=C(c1ccc(O)cc1)c1c[nH]c2cccc(O)c12 | 25 | 25 | > 100 | > 100 |  | Dose-dependent effect | > 87 |  |  |  |
| O=C(c1ccc(O)cc1O)c1c[nH]c2c(O)cccc12 | 10 | 10 | > 100 | > 100 |  |  |  |  |  |  |
| O=C(c1cc(O)c(O)c(O)c1)c1c[nH]c2ccc(O)cc12 | 25 | 25 | > 100 | > 100 |  |  |  |  |  |  |
| O=C1c2c(O)ccc(O)c2C(=O)c2c(NCCNCCO)ccc(NCCNCCO)c21 [MITOXANTRONE] |  |  | 40.6 |  |  |  |  |  | 0.36 |  |
| COc1ccc(C(=O)c2c(OC)ccc3cc(OC)ccc23)c(OC)c1 | 10 | 10 | 84 | 86.2 |  |  |  | Not Active |  |  |
| COc1ccc(C(=O)c2ccc3[nH]cc(C(=O)c4ccc(OC)cc4OC)c3c2OC)c(OC)c1 | 25 | 25 | 68.7 | > 100 |  | Dose-dependent effect | > 87 |  |  |  |
| O=C(c1ccc(O)cc1)c1c[nH]c2ccc(O)cc12 | 25 | 25 | > 100 | > 100 |  |  |  | Active |  |  |
| O=C(c1ccc(O)cc1)c1ccc2[nH]cc(C(=O)c3ccc(O)cc3)c2c1O | 25 | 25 | > 100 | > 100 |  |  |  |  |  |  |
| O=C(c1ccc(O)cc1O)c1c[nH]c2ccc(O)cc12 | 25 | 25 | > 100 | > 100 |  |  |  | Active |  |  |
| COc1ccc(C(=O)c2c[nH]c3cccc(OC)c23)c(OC)c1 | 25 | 25 | > 100 | > 100 |  |  |  | Active |  |  |
| COc1cccc(C(=O)c2c[nH]c3ccc(OC)cc23)c1 | 10 | 10 | 53.2 | > 100 |  | Dose-dependent effect |  |  |  | > 87 |
| O=C(c1cc(O)c(O)c(O)c1)c1c[nH]c2cccc(O)c12 | 25 | 25 | > 100 | > 100 |  |  |  |  |  |  |
| O=C(c1ccccc1O)c1c[nH]c2ccc(O)cc12 | 25 | 25 | > 100 | > 100 |  | Dose-dependent effect | > 87 |  |  |  |
| COc1ccc(C(=O)c2c[nH]c3c(OC)cccc23)c(OC)c1 | 10 | 10 | > 100 | > 100 | Active |  |  |  |  |  |
